Consider 24 compounds from US7825160B2, “(Biphenyl) carboxylic acids and derivatives thereof” (Cellzome Limited, priority 2004, dated 2010).

The IC50 is the point on the concentration scale where inhibition reaches its midpoint. As a reminder, the inhibition is the change of the read-out against control, counted positive when it falls. A low value points to a response near the control.

One experiment deals with γ-secretase activity. The experiment in a line: Screening for γ-secretase-modulating activity in SKN neuroblastoma cells carrying APP swedish mutant. Type of experiment: cell-based. As to conditions: read-out: IC50 on the γ-secretase activity, Activity range. On the procedure: Screening was carried out using SKN neuroblastoma cells carrying the APP-“swedish mutant” (point mutations at position 595 and 596, numbering based on APP695) grown in DMEM/NUT-mix F12 (HAM) provided by Gibco (cat no. 31330-38) containing 5% Serum/Fe supplemented with 1% non-essential amino acids, 100 U/ml Pen/Strep.
Cells were grown to near confluency.
The screening was performed using the assay as described in Citron et al (1997) Nature Medicine 3: 67.
IC50-Values of Selected Compounds of the Invention on the γ-Secretase Activity.

The next experiment deals with T1, Cyclooxygenase-1 (Cox-1) (Ovis aries, UniProt P05979).
T1 construct: purchased Cayman Chemical Company 760111
T1 sequence (P05979 25-600): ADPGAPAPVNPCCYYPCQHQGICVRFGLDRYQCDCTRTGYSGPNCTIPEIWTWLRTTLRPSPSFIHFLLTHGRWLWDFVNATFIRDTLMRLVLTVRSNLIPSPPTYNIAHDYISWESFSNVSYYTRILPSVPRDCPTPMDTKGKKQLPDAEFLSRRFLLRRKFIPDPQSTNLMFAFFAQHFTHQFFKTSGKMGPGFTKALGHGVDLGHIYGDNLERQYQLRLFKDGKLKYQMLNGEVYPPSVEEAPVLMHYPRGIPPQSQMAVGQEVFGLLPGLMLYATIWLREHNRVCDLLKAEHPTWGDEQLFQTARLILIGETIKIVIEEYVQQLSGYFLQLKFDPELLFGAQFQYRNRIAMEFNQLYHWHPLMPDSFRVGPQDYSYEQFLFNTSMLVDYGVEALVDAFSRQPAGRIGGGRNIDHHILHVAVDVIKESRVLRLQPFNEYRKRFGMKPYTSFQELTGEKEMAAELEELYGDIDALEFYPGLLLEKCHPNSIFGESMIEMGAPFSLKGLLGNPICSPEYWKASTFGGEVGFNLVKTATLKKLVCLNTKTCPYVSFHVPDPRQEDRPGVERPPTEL
The experiment in a line: Colorimetric Cox inhibitor screening assay (Cayman), Cox-1. Type of experiment: biochemical. On the procedure: (§1) Determination of the Effect of the Compounds According to the Invention on Cyclooxygenase-1 and Cyclooxygenase-2 (Cox-1, Cox-2)
(§2) Inhibition of Cox-1 and Cox-2 was determined using the Colorimetric Cox inhibitor screening assay provided by Cayman Chemical Company, Ann Arbor, Mich., USA. (Cat. No. 760111) according to manufacturer's instructions.

A further experiment concerns the target T2, Cyclooxygenase-2 (Cox-2) (Ovis aries, UniProt P79208).
T2 construct: purchased Cayman Chemical Company 760111
T2 sequence (P79208 17-603): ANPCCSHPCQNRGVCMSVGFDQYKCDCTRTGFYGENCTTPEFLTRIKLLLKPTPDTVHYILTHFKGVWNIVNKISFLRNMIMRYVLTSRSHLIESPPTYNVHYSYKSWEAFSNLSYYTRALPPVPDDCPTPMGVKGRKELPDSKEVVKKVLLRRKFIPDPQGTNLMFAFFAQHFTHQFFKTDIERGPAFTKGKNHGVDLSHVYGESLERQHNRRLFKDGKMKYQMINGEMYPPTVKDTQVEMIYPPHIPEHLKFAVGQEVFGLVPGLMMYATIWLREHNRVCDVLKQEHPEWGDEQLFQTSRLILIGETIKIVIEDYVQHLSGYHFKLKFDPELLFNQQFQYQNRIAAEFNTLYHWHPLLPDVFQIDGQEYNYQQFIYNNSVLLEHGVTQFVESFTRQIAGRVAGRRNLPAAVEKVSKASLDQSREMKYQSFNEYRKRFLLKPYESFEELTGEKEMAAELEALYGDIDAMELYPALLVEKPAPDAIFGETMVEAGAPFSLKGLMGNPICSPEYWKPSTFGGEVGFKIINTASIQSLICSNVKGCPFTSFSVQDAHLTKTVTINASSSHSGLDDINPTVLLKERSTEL
Nature of the experiment: Colorimetric Cox inhibitor screening assay (Cayman), Cox-2. The experiment is classed as biochemical. On the procedure:
as §1, §2

As for `O=C(O)Cc1cc(OCc2ccc(F)cc2)cc(-c2ccc(C(F)(F)F)cc2)c1` [I, [5-(4-Fluoro-benzyloxy)-4′-trifluoromethyl-biphenyl-3-yl]-acetic acid], the IC50 in the experiment with γ-secretase activity was 1 to 10 µM. Besides, the inhibition at 100 µM against Cyclooxygenase-1 (Cox-1) and on Cyclooxygenase-2 (Cox-2) was < 50% each time.

For the compound `O=C(O)Cc1cc(OCc2ccc(C(F)(F)F)cc2)cc(-c2ccc(C(F)(F)F)cc2)c1` [III, [4′-Trifluoromethyl-5-(4-trifluoromethyl-benzyloxy)-biphenyl-3-yl]-acetic acid], the IC50 in the experiment on γ-secretase activity was < 1 µM. The inhibition at 100 µM against Cyclooxygenase-1 (Cox-1) and against Cyclooxygenase-2 (Cox-2) was < 50% throughout.

Regarding `O=C(O)Cc1cc(OCc2ccccc2)cc(-c2cc(Cl)cc(Cl)c2)c1` [IX, (5-Benzyloxy-3′,5′-dichloro-biphenyl-3-yl)-acetic acid], the IC50 with γ-secretase activity fell in the range of 1 to 10 µM. In addition, the inhibition at 100 µM against Cyclooxygenase-1 (Cox-1) and against Cyclooxygenase-2 (Cox-2) was < 50% throughout.

As for `O=C(O)Cc1cc(OCC2CCCCC2)cc(-c2ccc(C(F)(F)F)cc2)c1` [V, (5-Cyclohexylmethoxy-4′-trifluoromethyl-biphenyl-3-yl)-acetic acid], the IC50 in the experiment with γ-secretase activity is < 1 µM. The inhibition at 100 µM against Cyclooxygenase-1 (Cox-1) and on Cyclooxygenase-2 (Cox-2) was < 50% throughout.

Consider `O=C(O)Cc1cc(OCc2ccc(S(=O)(=O)N3CCCC3)cc2)cc(-c2ccc(C(F)(F)F)cc2)c1` [VI, {5-[4-(Pyrrolidine-1-sulfonyl)-benzyloxy]-4′-trifluoromethyl-biphenyl-3-yl}-acetic acid], for which the IC50 with γ-secretase activity is 1 to 10 µM. Also, the inhibition at 100 µM at Cyclooxygenase-1 (Cox-1) and on Cyclooxygenase-2 (Cox-2) was < 50% throughout.

`CCCC(C(=O)O)c1cc(OCc2ccccc2)cc(-c2ccc(C(F)(F)F)cc2)c1` (stereo not shown) [VIII, 2-(5-Benzyloxy-4′-trifluoromethyl-biphenyl-3-yl)-pentanoic acid]: the IC50 with γ-secretase activity was < 1 µM. For the same compound, the inhibition at 100 µM against Cyclooxygenase-1 (Cox-1) and against Cyclooxygenase-2 (Cox-2) was < 50% throughout.

On to `O=C(O)Cc1cc(OCc2ccccc2)cc(-c2ccc(C(F)(F)F)cc2)c1` [X, (5-Benzyloxy-4′-trifluoromethyl-biphenyl-3-yl)-acetic acid], for which the IC50 with γ-secretase activity lay in the range of 1 to 10 µM. Also, the inhibition at 100 µM on Cyclooxygenase-1 (Cox-1) and on Cyclooxygenase-2 (Cox-2) was < 50% throughout.

With `O=C(O)Cc1cc(OCc2ccccc2)cc(-c2ccc(OC(F)(F)F)cc2)c1` [XIII, (5-Benzyloxy-4′-trifluoromethoxy-biphenyl-3-yl)-acetic acid], the half-inhibitory concentration (IC50) with γ-secretase activity is 1 to 10 µM. The inhibition at 100 µM against Cyclooxygenase-1 (Cox-1) and against Cyclooxygenase-2 (Cox-2) was < 50% each time.

Regarding `CC(C(=O)O)c1cc(OCc2ccccc2)cc(-c2ccc(C(F)(F)F)cc2)c1` (stereo not shown) [XIX, 2-(5-Benzyloxy-4′-trifluoromethyl-biphenyl-3-yl)-propionic acid], the half-maximal inhibitory concentration (IC50) in the experiment with γ-secretase activity fell in the range of 1 to 10 µM. Besides, the inhibition at 100 µM at Cyclooxygenase-1 (Cox-1) and against Cyclooxygenase-2 (Cox-2) was < 50% in each case.

With `CCCC(C(=O)O)c1cc(OCC2CC2)cc(-c2ccc(C(F)(F)F)cc2)c1` (stereo not shown) [XL, 2-(5-Cyclopropylmethoxy-4′-trifluoromethyl-biphenyl-3-yl)-pentanoic acid], the concentration for half-maximal inhibition (IC50) with γ-secretase activity was in the range of 1 to 10 µM. For the same compound, the inhibition at 100 µM on Cyclooxygenase-1 (Cox-1) and at Cyclooxygenase-2 (Cox-2) was < 50% in each case.

As for `O=C(O)Cc1cc(OCC2CC2)cc(-c2ccc(C(F)(F)F)cc2)c1` [XLII, (5-Cyclopropylmethoxy-4′-trifluoromethyl-biphenyl-3-yl)-acetic acid], the IC50 with γ-secretase activity fell in the range of 1 to 10 µM. For the same compound, the inhibition at 100 µM against Cyclooxygenase-1 (Cox-1) and at Cyclooxygenase-2 (Cox-2) was < 50% throughout.

As to `O=C(O)Cc1cc(OCc2cc(Cl)cc(Cl)c2)cc(-c2ccc(C(F)(F)F)cc2)c1` [XLIV, [5-(3,5-Dichloro-benzyloxy)-4′-trifluoromethyl-biphenyl-3-yl]-acetic acid], the 50% inhibitory concentration (IC50) with γ-secretase activity was 1 to 10 µM. For the same compound, the inhibition at 100 µM against Cyclooxygenase-1 (Cox-1) and against Cyclooxygenase-2 (Cox-2) was < 50% throughout.

On to `CN(C)S(=O)(=O)c1ccc(COc2cc(CC(=O)O)cc(-c3ccc(C(F)(F)F)cc3)c2)cc1` [XLVI, [5-(4-Dimethylsulfamoyl-benzyloxy)-4′-trifluoromethyl-biphenyl-3-yl]-acetic acid], for which the half-maximal inhibitory concentration (IC50) with γ-secretase activity lay within 1 to 10 µM. The inhibition at 100 µM against Cyclooxygenase-1 (Cox-1) and against Cyclooxygenase-2 (Cox-2) was < 50% each time.

Regarding `CC(Oc1cc(CC(=O)O)cc(-c2ccc(C(F)(F)F)cc2)c1)c1ccccc1` (stereo not shown) [XLVII, [5-(1-Phenyl-ethoxy)-4′-trifluoromethyl-biphenyl-3-yl]-acetic acid], the concentration for half-maximal inhibition (IC50) in the experiment with γ-secretase activity lay within 1 to 10 µM. Also, the inhibition at 100 µM at Cyclooxygenase-1 (Cox-1) and on Cyclooxygenase-2 (Cox-2) was < 50% each time.

`CC(C)(C(=O)O)c1cc(OCc2ccccc2)cc(-c2ccc(C(F)(F)F)cc2)c1` [XX, 2-(5-Benzyloxy-4′-trifluoromethyl-biphenyl-3-yl)-2-methyl-propionic acid]: the half-maximal inhibitory concentration (IC50) in the experiment on γ-secretase activity fell in the range of 1 to 10 µM. In addition, the inhibition at 100 µM against Cyclooxygenase-1 (Cox-1) and at Cyclooxygenase-2 (Cox-2) was < 50% throughout.

Regarding `O=C(O)C1(c2cc(OCc3ccccc3)cc(-c3ccc(C(F)(F)F)cc3)c2)CC1` [XXI, 1-(5-Benzyloxy-4′-trifluoromethyl-biphenyl-3-yl)-cyclopropanecarboxylic acid], the IC50 in the experiment with γ-secretase activity was in the range of 1 to 10 µM. The inhibition at 100 µM against Cyclooxygenase-1 (Cox-1) and at Cyclooxygenase-2 (Cox-2) was < 50% throughout.

For the compound `Cc1cccc(-c2cc(CC(=O)O)cc(OCc3ccccc3)c2)c1` [XXXII, (5-Benzyloxy-3′-methyl-biphenyl-3-yl)-acetic acid], in the experiment with γ-secretase activity, the IC50 lay within 10 to 100 µM.

`O=C(O)Cc1cc(OCc2ccccc2)cc(-c2cccc(C(F)(F)F)c2)c1` [XXXIII, (5-Benzyloxy-3′-trifluoromethyl-biphenyl-3-yl)-acetic acid]: the IC50 in the experiment on γ-secretase activity was in the range of 10 to 100 µM.

As for `O=C(O)Cc1cc(OCc2ccccc2)cc(-c2ccccc2F)c1` [XXXIV, (5-Benzyloxy-2′-fluoro-biphenyl-3-yl)-acetic acid], the IC50 in the experiment with γ-secretase activity was 10 to 100 µM.

As for `CCCC(C(=O)O)c1cc(OCc2ccc(S(=O)(=O)N3CCCC3)cc2)cc(-c2ccc(C(F)(F)F)cc2)c1` (stereo not shown) [XXXIX, 2-{5-[4-(Pyrrolidine-1-sulfonyl)-benzyloxy]-4′-trifluoromethyl-biphenyl-3-yl}-pentanoic acid], in the experiment on γ-secretase activity, the IC50 fell in the range of 1 to 10 µM. Moreover, the inhibition at 100 µM on Cyclooxygenase-1 (Cox-1) and against Cyclooxygenase-2 (Cox-2) was < 50% each time.

For the compound `Cc1ccc(-c2cc(CC(=O)O)cc(OCc3ccccc3)c2)cc1` [XXXV, (5-Benzyloxy-4′-methyl-biphenyl-3-yl)-acetic acid], in the experiment on γ-secretase activity, the IC50 lay in the range of 10 to 100 µM.

`O=C(O)Cc1cc(OCc2ccccc2)cc(-c2cccc(F)c2)c1` [XXXVI, (5-Benzyloxy-3′-fluoro-biphenyl-3-yl)-acetic acid]: in the experiment on γ-secretase activity, the 50% inhibitory concentration (IC50) was 10 to 100 µM.

In the case of `O=C(O)Cc1cc(OCc2ccccc2)cc(-c2cccc(Cl)c2)c1` [XXXVII, (5-Benzyloxy-3′-chloro-biphenyl-3-yl)-acetic acid], the IC50 with γ-secretase activity lay within 100 to 300 µM.

In the case of `O=C(O)Cc1cc(OCc2ccccc2)cc(-c2cccc(OC(F)(F)F)c2)c1` [XXXVIII, (5-Benzyloxy-3′-trifluoromethoxy-biphenyl-3-yl)-acetic acid], the IC50 in the experiment with γ-secretase activity was in the range of 1 to 10 µM.
